Reference: patent publication US9079913B2, “Spiro-oxindole MDM2 antagonists” (The Regents of the University of Michigan, priority 2009, dated 2015)
Like-named read-outs stand apart in the source and are kept apart here.

How the values were obtained:
[1] = target: recombinant human His-tagged MDM2 protein (residues 1-118) (Homo sapiens (Human), UniProt Q00987); assay: Fluorescence-polarization MDM2 binding assay; settings: Table 19A; FP binding assay; read-out: MDM2 IC50;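 note: fluorescence polarization read after three hours of incubation in potassium phosphate buffer containing bovine gamma globulin and Triton X-100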
[2] = system: cancer cell lines with wild-type p53 / mutated or deleted p53 (ATCC); assay: Cell growth assay (WST-8), other cancer cell lines; format: cell-based; settings: Homo sapiens
[3] = system: Isogenic HCT-116 colon cancer cell lines; assay: cells; format: cell-based; settings: Homo sapiens, cell growth;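 note: cells grown in 96-well plates in McCoy's 5A medium with 10% FBS, exposed to compound for 4 days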
Description: Cells were seeded in 96-well flat bottom cell culture plates at a density of 2−3×10^3 cells/well with compounds and incubated for 4 days.

[4] = In vitro microsomal stability, rat; format: in vitro ADME
[5] = LNCaP, Table 19A, LNCAP cells, p53 wild-type, cell growth, read-out: LNCAP (p53 wild-type) IC50
[6] = PC-3, Table 19A, PC-3 cells, deleted p53, cell growth, read-out: PC-3 (deleted p53) IC50
[7] = HCT-116, read-out: HCT-116 (p53-/-) IC50, Table 19A, HCT-116 p53-/-
[8] = HCT-116, read-out: HCT-116 (p53 wild-type) IC50, Table 19A, HCT-116 p53 wild-type
[9] = SJSA-1, Table 19A, SJSA-1 cells, p53 wild-type, cell growth, read-out: SJSA-1 (p53 wild-type) IC50

Sequence of recombinant human His-tagged MDM2 protein (residues 1-118) (Q00987 1-118): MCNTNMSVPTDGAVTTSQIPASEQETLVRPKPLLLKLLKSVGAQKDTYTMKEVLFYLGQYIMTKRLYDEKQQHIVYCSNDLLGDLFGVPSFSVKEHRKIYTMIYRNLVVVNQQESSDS

| Compound | IC50 [1] | IC50 [2, 5] | IC50 [2, 6] | IC50 [3, 7] | IC50 [3, 8] | % of compound remaining when incubated in rat liver microsomes ([4]; Table 17, 0 min) | % of compound remaining when incubated in rat liver microsomes ([4]; Table 17, 4 min) | % of compound remaining when incubated in rat liver microsomes ([4]; Table 17, 6 min) | % of compound remaining when incubated in rat liver microsomes ([4]; Table 17, 10 min) | % of compound remaining when incubated in rat liver microsomes ([4]; Table 17, 15 min) | % of compound remaining when incubated in rat liver microsomes ([4]; Table 17, 30 min) | IC50 [2, 9] | % of compound remaining when incubated in rat liver microsomes at indicated time (min) ([4]; 0 min) | % of compound remaining when incubated in rat liver microsomes at indicated time (min) ([4]; 4 min) | % of compound remaining when incubated in rat liver microsomes at indicated time (min) ([4]; 6 min) | % of compound remaining when incubated in rat liver microsomes at indicated time (min) ([4]; 10 min) | % of compound remaining when incubated in rat liver microsomes at indicated time (min) ([4]; 15 min) | % of compound remaining when incubated in rat liver microsomes at indicated time (min) ([4]; 30 min) |
| --- | --- | --- | --- | --- | --- | --- | --- | --- | --- | --- | --- | --- | --- | --- | --- | --- | --- | --- |
| CC(C)(C)C[C@H]1N[C@@H](C(=O)NCCN2CCNCC2)[C@H](c2cccc(Cl)c2)[C@@]12C(=O)Nc1cc(Cl)c(F)cc12 [MI-748] | < 1000 nM | 800 nM | 4100 ± 100 nM | 7600 ± 1000 nM | 900 ± 700 nM | 100% | 79.1% | 69.7% | 61.5% | 49.9% | 43.7% |  |  |  |  |  |  |  |
| CN1CCN(CCCNC(=O)[C@@H]2N[C@H](CC(C)(C)C)[C@]3(C(=O)Nc4cc(Cl)ccc43)[C@H]2c2cccc(Cl)c2F)CC1 [MI-519-46] | < 1000 nM | 500 ± 300 nM | 3700 ± 400 nM | 4300 ± 400 nM | 400 ± 100 nM | 100% | 83.8% | 70.9% | 53.9% | 53.4% | 38.3% | 500 ± 300 nM |  |  |  |  |  |  |
| CC(C)(C)C[C@H]1N[C@@H](C(=O)NCCCN2CCCCC2)[C@H](c2cccc(Cl)c2F)[C@@]12C(=O)Nc1cc(Cl)ccc12 [MI-519-44] | < 10000 nM | 1300 ± 200 nM | 2600 ± 100 nM | 2800 ± 700 nM | 800 nM | 100% | 85.6% | 74.7% | 66.4% | 61.2% | 42.5% | 900 ± 100 nM |  |  |  |  |  |  |
| CC(C)(C)C[C@H]1N[C@@H](C(=O)NCCCN2CCCC2)[C@H](c2cccc(Cl)c2)[C@@]12C(=O)Nc1cc(Cl)c(F)cc12 [MI-519-38] | < 1000 nM | 1000 ± 300 nM | 3100 ± 400 nM | 5300 ± 1600 nM | 1400 ± 600 nM |  |  |  |  |  |  | 2100 ± 100 nM | 100% | 91.5% | 85.4% | 82.4% | 80.8% | 73.2% |
| CN1CCN(CCCNC(=O)[C@@H]2N[C@H](CC(C)(C)C)[C@]3(C(=O)Nc4cc(Cl)c(F)cc43)[C@H]2c2cccc(Cl)c2)CC1 [MI-751] | < 1000 nM | 700 ± 200 nM | 3900 ± 900 nM | 6200 ± 1200 nM | 1000 ± 200 nM | 100% | 83.1% | 62.9% | 50.1% | 41.6% | 31.1% |  |  |  |  |  |  |  |
| CN1CCN(CCNC(=O)[C@@H]2N[C@H](CC(C)(C)C)[C@]3(C(=O)Nc4cc(Cl)c(F)cc43)[C@H]2c2cccc(Cl)c2)CC1 [MI-749] | < 1000 nM | 1000 ± 100 nM | 5000 ± 500 nM | 7800 ± 1300 nM | 1200 ± 400 nM | 100% | 82.9% | 58.4% | 54.2% | 42.7% | 23% |  |  |  |  |  |  |  |
